Source: patent US11008572B2, “Methods and compositions for modulating splicing” (SKYHAWK THERAPEUTICS, INC., priority 2017, dated 2021)
Where two headings read alike, the source gives them in different places.

How the values were obtained:
[1] = tested on: FOXM1^A2 mRNA and FOXM1^BC mRNA; experiment: Splicing assay (FOXM1), qPCR of isoform mRNAs; type: cell-based; settings: for EC50: read-out: Splice EC50 (nM) FoxM1 A mRNA increase (exon excluded)
Summary of the method: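 Cells (20,000/well) treated at plating with compound, 8-point 4-fold series from 10 μM, 0.2% DMSO, 24 h at 37° C. Isoform mRNAs quantified by RT-qPCR against plasmid standards, normalized to PPIA and DMSO control; isoform ratio computed per concentration.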

A-673 cells = experiment: Cell viability, crystal violet staining; type: cell-based; settings: Homo sapiens
Summary of the method: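 Readout is absorbance at 570 nm of crystal violet, taken up in 0.1 M sodium citrate in 50% ethanol after staining with 0.5% dye in 25% methanol. Plates held 5×10^3 cells per well, and compounds were added one day after seeding for 72 hours. Data are relative to vehicle, mean±SE.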

A673 cells = experiment: Dose-response cell proliferation, crystal violet assay, 72 h; type: cell-based; settings: ratio of IC50 in NHDF cells to IC50 in A673 cells
Procedure: Small molecule splicing modulators were tested in a dose-response assay using A673 cells and NHDF cells.
A673 cells or NHDF cells were first plated in 96-well plastic tissue culture plates (10,000 cells per well). The cells were treated with vehicle alone (DMSO), or increasing concentrations of SMSM compounds for 72 h. Following treatment, cell proliferation was determined using a crystal violet assay. The relative cell proliferation at each concentration was determined.

[2] = Splicing (IC50), Example 22; type: cell-based; settings: spliced gene and cells not stated
Procedure: A-673 cell viability […], splicing (IC50) and brain AUC/Plasma AUC of SMSMs were determined. As shown in the tables below SMSMs had high CNS exposure.

[3] = Maximum tolerable dose study; type: in vivo; settings: mice, 3 per group
Procedure: Survival of mice after administration of SMSMs after 10 or 11 days was assessed.
Tolerance of the drug treatments was determined by measuring the weight of the mice during the period of drug administration. Body weight was measured prior to tumor inoculation and prior to the treatment administration and then daily. The changes in the final weight of the mice for the SMSM treatments were determined.

[4] = FoxM1 BC mRNA decrease (exon included), read-out: Splice IC50 (nM) FoxM1 BC mRNA decrease (exon included)
[5] = Homo sapiens, A673, 24 h, A-673 cells, 24 hours, table does not say EC50 or IC50, read-out: FOXM1
[6] = Homo sapiens, A-375, 24 h, A-375 cells, 24 hours, table does not say EC50 or IC50, read-out: FOXM1
[7] = Homo sapiens, Hep3B, 24 h, Hep-3B cells, 24 hours, table does not say EC50 or IC50, read-out: FOXM1
[8] = Homo sapiens, K562, 24 h, K-562 cells, 24 hours, table does not say EC50 or IC50, read-out: FOXM1
[9] = Homo sapiens, MDA-MB-468, 24 h, MDA-MB-468 cells, 24 hours, table does not say EC50 or IC50, read-out: FOXM1
[10] = Homo sapiens, NCI-H358, 24 h, NCI-H358 cells, 24 hours, table does not say EC50 or IC50, read-out: FOXM1
[11] = Homo sapiens, PANC-1, 24 h, PANC-1 cells, 24 hours, table does not say EC50 or IC50, read-out: FOXM1
[12] = Homo sapiens, PC-3, 24 h, PC-3 cells, 24 hours, table does not say EC50 or IC50, read-out: FOXM1
[13] = Homo sapiens, U-87 MG, 24 h, U-87MG cells, 24 hours, table does not say EC50 or IC50, read-out: FOXM1
[14] = A673, cell viability, read-out: A-673 IC50 (nM) Cell viability
[15] = A673, read-out: A-673 cell viability (IC50)

Question: What does the source list for `CN(c1ccc(-c2ccc(-c3ccn(C)c(=O)c3)cc2O)nn1)[C@H]1C[C@]2(C)CC[C@](C)(C1)N2` [compound 168, 4-(4-(6-(((1R,3s,5S)-1,5-dimethyl-8-azabicyclo[3.2.1]octan-3-yl)(methyl)amino)pyridazin-3-yl)-3-hydroxyphenyl)-1-methylpyridin-2(1H)-one]?
Answer: IC50 [1, 4]: < 10 nM; IC50 [1, 5]: 1 to 10 nM; IC50 [1, 6]: 1 to 10 nM; IC50 [1, 7]: 101 to 200 nM; IC50 [1, 8]: 11 to 100 nM; IC50 [1, 9]: 11 to 100 nM; IC50 [1, 10]: 1 to 10 nM; IC50 [1, 11]: 101 to 200 nM; IC50 [1, 12]: 11 to 100 nM; IC50 [1, 13]: 11 to 100 nM; EC50 [1]: > 1000 nM; IC50 (A-673 cells; [14]): < 10 nM; IC50 (A-673 cells; [15]): ≤ 5 nM; Ratio NHDF/A673 IC50 (A673 cells): >500; IC50 [2]: < 1 nM

Question: Which IC50 [1, 4] does the source give for `CN(c1ccc(-c2cc(F)c(-c3cn[nH]c3)cc2O)nn1)[C@H]1C[C@]2(C)CC[C@](C)(C1)N2` [compound 167, 2-(6-(((1R,3s,5S)-1,5-dimethyl-8-azabicyclo[3.2.1]octan-3-yl)(methyl)amino)pyridazin-3-yl)-4-fluoro-5-(1H-pyrazol-4-yl)phenol] here?
Answer: < 10 nM

Question: And the IC50 [1, 5]?
Answer: < 1 nM

Question: And the IC50 [1, 6]?
Answer: < 1 nM

Question: What about the IC50 [1, 7] of the same molecule?
Answer: 11 to 100 nM

Question: And the IC50 [1, 8]?
Answer: 1 to 10 nM

Question: And the IC50 [1, 9]?
Answer: 1 to 10 nM

Question: And the IC50 [1, 10]?
Answer: < 1 nM

Question: And the IC50 [1, 11]?
Answer: 11 to 100 nM

Question: What about the IC50 [1, 12] of the same molecule?
Answer: 11 to 100 nM

Question: And the IC50 [1, 13]?
Answer: 11 to 100 nM

Question: And the EC50 [1]?
Answer: < 10 nM

Question: And the IC50 (A-673 cells; [14])?
Answer: < 10 nM

Question: What about the IC50 (A-673 cells; [15]) of the same molecule?
Answer: < 0.5 nM

Question: What about the “Ratio NHDF/A673 IC50” value (A673 cells) of the same molecule?
Answer: >2,500

Question: What about the Outcome ([3]; IP 0.1 mg/kg BIDx12) of the same molecule?
Answer: All survived

Question: And the Outcome ([3]; IP 0.3 mg/kg BIDx12)?
Answer: All survived

Question: And the Outcome ([3]; IP 1 mg/kg QDx12)?
Answer: All survived

Question: And the Outcome ([3]; PO 5 mg/kg QDx12)?
Answer: All survived

Question: And the IC50 [2]?
Answer: < 1 nM
